Some results are limits rather than exact numbers.

The target of the assay is farnesyl protein transferase. The assay is described as follows: Inhibition of farnesyl protein transferase (test of WO 95/10514). The assay is classed as biochemical. Particulars: percent inhibition relative to DMSO vehicle control, IC50 estimated. The text has this:
The compounds of the invention can be tested by standard methods, for example by those published in published PCT application WO 95/10514 published Apr. 20, 1995 (starting at page 61), the disclosure of which is hereby incorporated herein by reference. Particularly relevant assays and studies include In vitro enzyme assays, Cell-Based Assays, Cell Mat Assays, and In Vivo Anti-Tumor Studies.
Such Assays and Studies indicate that compounds of the Formula I above are selective inhibitors of Ras-FPT and can be used as anti-tumor agents. The following Table presents IC50 values obtained in the test for Inhibition of farnesyl protein transferase, reported in published PCT application WO 95/10514. Percent inhibition was calculated relative to the DMSO vehicle control, and an IC50 value was estimated.
“4-(8-Chloro-5,11-dihydro-[1]benzothiepinof4,3-b]pyridin-11-yl)-1-(4-pyridine-acetyl)piperazine N1,6,6-trioxide [Example 17B]”: the IC50 – broadly, the point on the concentration scale where inhibition reaches its midpoint – is > 1200 nM.
Next, `CN1CCC(CC(=O)N2CCN(C3c4ccc(Cl)cc4SCc4cccnc43)CC2)CC1` (stereo not drawn) [Example 10, 4-(8-Chloro-5,11-dihydro-[1]benzothiepino[4,3-b]pyridin-11-yl)-1-(1-methyl-4-piperidine-acetyl)piperazine]: 2100 nM.
For `O=C(Cc1cc[n+]([O-])cc1)N1CCN(C2c3ccc(Cl)cc3SCc3cccnc32)CC1` (stereo not drawn) [Example 9A, 4-(8-Chloro-5,11-dihydro-[1]benzothiepino[4,3-b]pyridin-11-yl)-1-(4-pyridine-acetyl)piperazine N1-oxide], the concentration for half-maximal inhibition (IC50) is 790 nM.
`N#CN=C(NCc1ccc2c(c1)OCO2)N1CCN(C2c3ccc(Cl)cc3SCc3cccnc32)CC1` (stereo not drawn) [Example 20A, N-[(1,3-Benzodioxol-5-yl)methyl]-4-(8-chloro-5,11-dihydro[1]benzothiepino[4,3-b]pyridin-11-yl)-N'-cyano-1-piperazine-carboximidamide]: the IC50 is > 370 nM.
Regarding `CN1Cc2cccnc2C(N2CCN(C(=O)CC3CCNCC3)CC2)c2ccc(Cl)cc21` (stereo not drawn) [Example 39, 4-(8-Chloro-6,11-dihydro-6-methyl-5H-pyrido[3,2-c][1]benzazepin-11-yl)-1-(4-piperidine-acetyl)piperazine], the IC50 was > 1300 nM.
Take `CC(C)(C)OC(=O)N1CCC(CC(=O)N2CCC(=C3c4ccc(Cl)cc4S(=O)(=O)Cc4cccnc43)CC2)CC1` [Example 27]: the IC50 is > 1200 nM.
`O=C(Cc1cccnc1)N1CCC(=C2c3ccc(Cl)cc3OCc3cccnc32)CC1` [Example 6, 4-(8-Chloro-5,11-dihydro[1]benz-oxepino[4,3-b]pyridin-11-ylidene)-1-(3-pyridine-acetyl)piperidine]: the half-inhibitory concentration (IC50) was 2300 nM.
Regarding `CN1Cc2cccnc2C(N2CCN(C(=O)Cc3ccncc3)CC2)c2ccc(Cl)cc21` (stereo not drawn) [Example 35, 4-(8-Chloro-6,11-dihydro-6-methyl-5H-pyrido[3,2-c][1]benzazepin-11-yl)-1-(4-pyridine-acetyl)piperazine], the IC50 was 840 nM.
Next, `CSC(=NC#N)N1CCN(C2c3ccc(Cl)cc3SCc3cccnc32)CC1` (stereo not drawn) [Example 18, Methyl 4-(8-chloro-5,11-dihydro-[1]benzothiepino[4,3-b]pyridin-11-yl)-N-cyano-1-piperazinecarboximidothioate]: 300 nM.
As for `N#CNC(=NCc1ccncc1)N1CCC(=C2c3ccc(Cl)cc3SCc3cccnc32)CC1` [Example 23, 4-(8-Chloro-5,11-dihydro[1]benzothiepino[4,3-b]pyridin-11-ylidene)-N-cyano-N'-(4-pyridinylmethyl)-1-piperidine-carboximidamide], the IC50 is 43 nM.
Regarding `N#CN=C(NCc1ccc2c(c1)OCO2)N1CCC(=C2c3ccc(Cl)cc3SCc3cccnc32)CC1` [Example 20B], the IC50 is > 113 nM.
As for `O=C(CC1CCNCC1)N1CCC(=C2c3ccc(Cl)cc3S(=O)(=O)Cc3cccnc32)CC1` [Example 28, 4-(8-Chloro-5,11-dihydro-[1]benzothiepino[4,3-b]pyridin-11-ylidene)-1-(4-piperidine-acetyl)piperidine-6,6-dioxide], the IC50 was > 1200 nM.
The value for `O=C(CSc1ccncc1)N1CCN(C2c3ccc(Cl)cc3SCc3cccnc32)CC1` (stereo not drawn) [Example 14A, 4-(8-Chloro-5,11-dihydro-[1]benzothiepino[4,3-b]pyridin-11-yl)-1-[(4-pyridinyl-thio)acetyl]piperazine] was 1000 nM; that for `CN1Cc2cccnc2C(N2CCN(C(=NCc3ccncc3)NC#N)CC2)c2ccc(Cl)cc21` (stereo not drawn) [Example 37, 4-(8-Chloro-6,11-dihydro-6-methyl-5H-pyrido[3,2-c][1]benzazepin-11-yl)-N-cyano-N'-(4-pyridinylmethyl)-1-piperazine-carboximidamide] was 140 nM.
`N#CNC(=NCc1ccncc1)N1CCC(=C2c3ccc(Cl)cc3OCc3cccnc32)CC1` [Example 3, 4-(8-Chloro-5,11-dihydro[1]benzoxepino[4,3-b]pyridin-11-ylidene)-N-cyano-N'-(4-pyridinylmethyl)-1-piperidine-carboximidamide]: the IC50 is > 42 nM.
As for `O=C(Cc1ccncc1)N1CCC(=C2c3ccc(Cl)cc3SCc3cccnc32)CC1` [Example 25, 4-(8-Chloro-5,11-dihydro[1]benzothiepino[4,3-b]pyridin-11-ylidene)-1-(pyridine-4-acetyl)-piperidine], the IC50 was 190 nM.
The value for `NC(=O)N1CCC(CC(=O)N2CCC(=C3c4ccc(Cl)cc4SCc4cccnc43)CC2)CC1` [Example 15B, 4-[2-[4-(8-Chloro-5,11-dihydro-[1]benzothiepino[4,3-b]pyridin-11-ylidene)-1-piperidinyl]-2-oxoethyl]-1-piperidinecarboxamide] was 920 nM.
In the case of `CSC(=NC#N)N1CCC(=C2c3ccc(Cl)cc3SCc3cccnc32)CC1` [Example 22], the IC50 is 200 nM.
With `O=C(Cc1cc[n+]([O-])cc1)N1CCC(=C2c3ccc(Cl)cc3SCc3cccnc32)CC1` [Example 9B, 4-(8-Chloro-5,11-dihydro-[1]benzothiepino[4,3-b]pyridin-11-ylidene)-1-(4-pyridine-acetyl)piperidine N1-oxide], the 50% inhibitory concentration (IC50) is 520 nM.
The value for `CN1Cc2cccnc2C(N2CCN(C(=O)Cc3cc[n+]([O-])cc3)CC2)c2ccc(Cl)cc21` (stereo not drawn) [Example 34] was 2700 nM; that for `CC(C)(C)OC(=O)N1CCC(CC(=O)N2CCN(C3c4ccc(Cl)cc4SCc4cccnc43)CC2)CC1` (stereo not drawn) [Example 11A, 1,1-Dimethylethyl 4-[2-[4-(8-chloro-5,11-dihydro-[1]benzothiepino[4,3-b]pyridin-11-yl)-1-piperazinyl]2-oxoethyl]-1-piperidinecarboxylate] was > 1100 nM; that for `O=C(Cc1cc[n+]([O-])cc1)N1CCC(=C2c3ccc(Cl)cc3OCc3cccnc32)CC1` [Example 7B, 4-(8-Chloro-5,11-dihydro[1]benzoxepino[4,3-b]pyridin-11-ylidene)-1-(4-pyridine-acetyl)piperidine N1-oxide] was 1520 nM.
Next, `CC1(C)c2cccnc2C(=C2CCN(C(=O)Cc3cc[n+]([O-])cc3)CC2)c2ccc(Cl)cc2S1(=O)=O` [Example 30, 4-(8-Chloro-5,11-dihydro-5,5-dimethyl-[1]benzothiepino[4,3-b]pyridin-11-ylidene)-1-(4-pyridine-acetyl)piperidine-6,6-dioxide N1-oxide]: > 1100 nM; `N#CC=C(c1ccc(F)cc1)N1CCC(=C2c3ccc(Cl)cc3SCc3cccnc32)CC1` [Example 33, 3-[4-(8-Chloro-5,11-dihydro-[1]benzothiepino[4,3-b]pyridin-11-ylidene)-piperidin-1-yl]-3-(4'-fluorophenyl)-2-propene-nitrile]: > 420 nM; `NC(=O)N1CCC(CC(=O)N2CCN(C3c4ccc(Cl)cc4[S+]([O-])Cc4cccnc43)CC2)CC1` (stereo not drawn) [Example 32, 4-[2-[4-(8-Chloro-5,11-dihydro-[1]benzothiepino[4,3-b]pyridin-11-yl)-1-piperazinyl]-2-oxoethyl]-1-piperidinecarboxamide 6-oxide]: > 380 nM.
As to `NC(=O)N1CCC(CC(=O)N2CCC(=C3c4ccc(Cl)cc4S(=O)(=O)Cc4cccnc43)CC2)CC1` [Example 29, 4-[2-[4-(8-Chloro-5,11-dihydro-[1]benzothiepino[4,3-b]pyridin-11-ylidene)-1-piperidinyl]-2-oxoethyl]-1-piperidinecarboxamide-6,6-dioxide], the IC50 was > 1100 nM.
As for `O=C(Cc1ccncc1)N1CCC(=C2c3ccc(Cl)cc3OCc3cccnc32)CC1` [Example 5, 4-(8-Chloro-5,11-dihydro[1]benz-oxepino[4,3-b]pyridin-11-ylidene)-1-(4-pyridine-acetyl)piperidine], the half-maximal inhibitory concentration (IC50) is 760 nM.
Take `N#CNC(=NCc1ccncc1)N1CCN(C2c3ccc(Cl)cc3SCc3cccnc32)CC1` (stereo not drawn) [Example 19, 4-(8-Chloro-5,11-dihydro[1]benzothiepino[4,3-b]pyridin-11-yl)-N-cyano-N'-(4-pyridinylmethyl)-1-piperazine-carboximidamide]: the IC50 was 61 nM.
`O=C(Cc1ccncc1)N1CCN(C2c3ccc(Cl)cc3[S+]([O-])Cc3cccnc32)CC1` (stereo not drawn) [Example 31, 4-(8-Chloro-5,11-dihydro-[1]benzothiepino[4,3-b]pyridin-11-yl)-1-(4-pyridine-acetyl)piperazine-6-oxide]: the IC50 is 5000 nM.
Take `O=C(Cc1ccncc1)N1CCC(=C2c3ccc(Cl)cc3S(=O)(=O)Cc3cccnc32)CC1` [Example 16B, 4-(8-Chloro-5,11-dihydro-[1]benzothiepino[4,3-b]pyridin-11-ylidene)-1-(4-pyridine-acetyl)piperidine 6,6-dioxide]: the IC50 is 560 nM.
Regarding `O=C(CC1CCNCC1)N1CCC(=C2c3ccc(Cl)cc3SCc3cccnc32)CC1` [Example 12B, 4-(8-Chloro-5,11-dihydro-[1]benzothiepino[4,3-b]pyridin-11-ylidene)-1-(4-pipeeridine-acetyl)piperidine], the IC50 is 590 nM.
For the compound `O=C(Cc1cc[n+]([O-])cc1)N1CCC(=C2c3cc(Br)c(Cl)cc3OCc3cccnc32)CC1` [Example 7A, 4-(9-Bromo-8-chloro-5,11-dihydro[1]benzoxepino[4,3-b]pyridin-11-ylidene)-1-(4-pyridine-acetyl)piperidine N1-oxide], the IC50 is > 400 nM.
With `CSC(=NC#N)N1CCN(C2c3ccc(Cl)cc3N(C)Cc3cccnc32)CC1` (stereo not drawn) [Example 36, Methyl 4-(8-chloro-6,11-dihydro-6-methyl-5H-pyrido[3,2-c][1]benzazepin-11-yl)-N-cyano-1-piperazinecarboximidothioate], the half-maximal inhibitory concentration (IC50) was 1100 nM.

(Values after patent US6130229A, “Tricyclic compounds having activity as RAS-FPT inhibitors” (Schering Corporation, priority 1997, dated 2000).)
